# Reference: PMC12483982, “MTS1 regulates rice plant architecture by mediating phosphoinositide metabolism” (Plant Biotechnology Journal, 2025)
# Target: T1, NGR5 (GST-NGR5) (Oryza sativa, UniProt X5HYT8)
# T1 construct: gene SMOS1; recombinant GST fusion from E. coli Rosetta (DE3), glutathione sepharose, GST tag kept; NT-647 NHS labelled
# T1 sequence (X5HYT8 1-425): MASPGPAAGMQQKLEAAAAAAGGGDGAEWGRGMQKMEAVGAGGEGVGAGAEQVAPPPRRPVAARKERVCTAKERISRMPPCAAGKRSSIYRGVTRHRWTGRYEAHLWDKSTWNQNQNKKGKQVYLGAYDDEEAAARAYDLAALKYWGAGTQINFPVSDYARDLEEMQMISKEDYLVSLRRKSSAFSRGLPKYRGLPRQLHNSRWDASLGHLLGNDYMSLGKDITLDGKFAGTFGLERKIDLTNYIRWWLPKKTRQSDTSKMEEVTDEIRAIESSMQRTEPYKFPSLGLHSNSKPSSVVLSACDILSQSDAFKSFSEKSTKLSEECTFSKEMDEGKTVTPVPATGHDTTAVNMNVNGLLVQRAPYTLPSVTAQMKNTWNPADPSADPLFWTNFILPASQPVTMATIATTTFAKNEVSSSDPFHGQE
# Assay: microscale thermophoresis (NT.[…])
# Type: binding
# Details: NT-647 NHS-labelled GST-NGR5 10 nM; phosphate buffer with 0.005% Tween-20; 30 min; also seen in lipid-protein overlay
substance,measurement,value
phosphatidylinositol 4-phosphate [PI4P],Kd,1.14 ± 0.6 µM
